Patent publication US11266622B2, “Method of treatment” (Vanda Pharmaceuticals Inc., priority 2014, dated 2022)

Legend:
[1] = Metabolite formation following oral administration of tasimelteon; type: in vivo; conditions: humans
Mel1a (MT1R) = Mel1a (MT1R) (Homo sapiens, UniProt P48039); experiment: Affinity (Ki) for melatonin receptor MT1R; type: binding
Mel1b (MT2R) = target: T1, Mel1b (MT2R) (Homo sapiens, UniProt P49286); experiment: Affinity (Ki) for melatonin receptor MT2R; type: binding
T1 sequence (P49286 1-362): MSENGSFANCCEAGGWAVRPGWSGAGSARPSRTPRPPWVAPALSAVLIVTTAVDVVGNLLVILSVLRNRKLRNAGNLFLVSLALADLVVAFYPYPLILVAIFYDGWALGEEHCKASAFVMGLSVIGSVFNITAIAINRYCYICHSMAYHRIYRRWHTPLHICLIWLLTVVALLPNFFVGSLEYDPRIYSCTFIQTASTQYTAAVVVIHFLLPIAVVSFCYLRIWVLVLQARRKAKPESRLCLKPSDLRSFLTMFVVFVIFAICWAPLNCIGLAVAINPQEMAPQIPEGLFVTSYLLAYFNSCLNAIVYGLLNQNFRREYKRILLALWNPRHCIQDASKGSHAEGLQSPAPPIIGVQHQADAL

[2] = Solubility of tasimelteon in solvents and water; type: physicochemical
sleep parameters = conditions: cited from earlier work

Sequence of Mel1a (MT1R) (P48039 whole entry): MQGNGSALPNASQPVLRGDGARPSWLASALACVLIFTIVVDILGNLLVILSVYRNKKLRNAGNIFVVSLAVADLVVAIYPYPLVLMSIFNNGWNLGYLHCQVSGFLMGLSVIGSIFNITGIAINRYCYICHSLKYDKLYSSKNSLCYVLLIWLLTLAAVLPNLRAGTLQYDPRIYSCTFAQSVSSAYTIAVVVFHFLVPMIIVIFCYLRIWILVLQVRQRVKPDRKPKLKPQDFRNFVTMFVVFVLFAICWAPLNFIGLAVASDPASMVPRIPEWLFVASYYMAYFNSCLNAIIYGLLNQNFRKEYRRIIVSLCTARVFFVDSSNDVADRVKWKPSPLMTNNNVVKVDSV

Compound | formation as metabolite [1] | Ki (Mel1a (MT1R)) | Ki (Mel1b (MT2R)) | greater affinity for MT2R relative to MT1R (Mel1b (MT2R); MT2R relative to MT1R) | solubility in organic solvents ([2]; 95% ethanol, methanol, acetonitrile, ethyl acetate, isopropanol, polyethylene glycols (PEG-300 and PEG-400)) | effect of pH on aqueous solubility ([2]; aqueous) | native pH of a saturated solution in water ([2]; saturated solution in water) | solubility in water ([2]; water) | effect on sleep parameters (sleep parameters; prior clinical studies, simulated desynchronization of the circadian clock) | tolerability profile (sleep parameters; studied in hundreds of individuals)
CCC(=O)NC[C@@H]1C[C@H]1c1cccc(O)c1CC(=O)O [M9] | formed in humans | – | – | – | – | – | – | – | – | –
CCC(=O)NC[C@@H]1C[C@H]1c1cccc(O)c1CCO [M11] | formed in humans | – | – | – | – | – | – | – | – | –
CCC(=O)NC[C@@H]1C[C@H]1c1cccc2c1CCO2 (relative stereo) [Tasimelteon, trans-N-[[2-(2,3-dihydrobenzofuran-4-yl)cycloprop-1yl]methyl]propanamide] | – | 0.3 to 0.4 nM | 0.1 to 0.2 nM | 2-4 times | very soluble or freely soluble | practically unaffected by pH | 8.5 | only slightly soluble | shown to improve sleep parameters | good tolerability profile
